The target of series [1] is BTK (Homo sapiens, UniProt Q06187). Nature of the series: BTK covalent inhibition kinetics (KI, kinact, kinact/KI). The class given is biochemical. The settings on record: Table 4; for Ki / kinact: average of 2 independent determinations (± SD). Here is the method: The development of the structure-activity relationship was conducted by characterizing the non-covalent affinity of each inhibitor for BTK (KI) and the first order rate constant for irreversible covalent bond formation (kinact). The second order rate constant kinact/KI ratio is used to assess the covalent inhibitor potency because it is independent of incubation time and substrate concentrations (Copeland, R. A. Evaluation of Enzyme Inhibitors in Drug Discovery: a Guide for Medicinal Chemists and Pharmacologists; 2nd ed.; Wiley: Hoboken, N.J., 2013).

The nature of series [2]: Aqueous solubility at pH 2 and pH 7. The following applies: aqueous medium, Table 4. It is filed as physicochemical.
Series [3] is described as follows: Human liver microsomes T1/2. The settings on record: human, liver microsomes; Table 4. It is filed as in vitro ADME.
Where [4] appears, read: aqueous buffer, pH 7, read-out: Solubility pH 7.
Where [5] appears, read: simulated gastric fluid, pH 2, read-out: Solubility pH 2.

Converted amounts (≈) assume the structure as drawn. Like-named read-outs stand apart in the source and are kept apart here.

For orientation: kinact means the rate constant of inactivation at saturating inhibitor. By Solubility is commonly meant the dissolved amount per volume that the medium holds. Broadly, the half-life is the time needed for the level to fall by half in the phase considered. Low values mean rapid decline, high ones slow decline.

BTK, sequence (Q06187 whole entry): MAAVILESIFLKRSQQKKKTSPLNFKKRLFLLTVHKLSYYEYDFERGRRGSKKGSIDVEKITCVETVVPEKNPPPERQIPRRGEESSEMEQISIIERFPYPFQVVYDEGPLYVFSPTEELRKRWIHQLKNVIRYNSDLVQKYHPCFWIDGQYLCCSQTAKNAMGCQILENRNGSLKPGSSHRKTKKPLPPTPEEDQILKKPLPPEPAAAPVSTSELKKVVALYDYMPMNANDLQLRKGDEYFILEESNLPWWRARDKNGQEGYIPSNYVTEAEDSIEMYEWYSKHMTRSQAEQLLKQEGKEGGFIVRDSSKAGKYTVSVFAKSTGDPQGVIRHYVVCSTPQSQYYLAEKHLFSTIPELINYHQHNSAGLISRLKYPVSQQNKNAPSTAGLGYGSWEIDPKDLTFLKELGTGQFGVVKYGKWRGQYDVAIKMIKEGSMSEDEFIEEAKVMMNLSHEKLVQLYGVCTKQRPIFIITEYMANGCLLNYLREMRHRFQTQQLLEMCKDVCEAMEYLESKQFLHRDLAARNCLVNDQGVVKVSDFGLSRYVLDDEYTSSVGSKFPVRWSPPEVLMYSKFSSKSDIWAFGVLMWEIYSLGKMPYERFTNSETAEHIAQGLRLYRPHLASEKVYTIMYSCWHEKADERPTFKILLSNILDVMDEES

`C=CC(=O)N1CCCC(NC(=O)c2sc3nccc4c3c2NC(=O)N4c2cnc(OC(C)C)cc2C)C1` (stereo not shown) [Compound I]: in series [1], the kinact/KI came out at 1660 ± 62 M⁻¹ s⁻¹, the Ki is 0.208 ± 0.015 µM and the kinact came out at 0.000345 s⁻¹. Further, in series [1] (read-out: kinact/KI), the kinact/KI was 1660 M⁻¹ s⁻¹. Moreover, the Solubility in series [2] (setting [4]) was 68 µM (≈ 35.4 µg/mL). Also, in series [2] (setting [5]), the Solubility is 119 µM (≈ 62 µg/mL). The same molecule came in with a half-life in series [3] of 19 min.
Turning to `C=CC(=O)N1CCCC(NC(=O)c2sc3nccc4c3c2NC(=O)N4c2ncc(Oc3ccccc3)cc2C)C1` (stereo not shown) [E], the Ki in series [1] worked out at 0.0699 ± 0.0002 µM. Also, in series [1], the kinact came to 0.000333 s⁻¹. For the same molecule, the kinact/KI in series [1] (read-out: kinact/KI) came out at 4770 ± 7450 M⁻¹ s⁻¹. The Solubility was 9 µM (≈ 4.99 µg/mL) in series [2] (setting [4]) and 16 µM (≈ 8.87 µg/mL) in series [2] (setting [5]). Further, in series [3], the half-life came to 4 min.
